Assay results from patent US5385922A, “Thiazolidine derivatives” (Cedona Pharmaceuticals B.V., priority 1990, dated 1995).
pEC50: −log10 of the molar value. Where a name gives a salt, the structure may show the parent alone. Read-outs that look alike come from different tables or passages of the source.

Legend:
[1] = system: contracted rat aorta; assay: In vitro rat aorta assay: relaxation of aorta strips contracted with phenylephrine; assay type: cell-based; details: read-out: EC50 (mean): concentration at which residual contraction is 50% of maximum
Method: Strips of thoracial rat aortae (without aortic arch, helically cut; length 1-1.5 cm; width about 2 mm) were place in an organ bath [20 ml; Krebs Ringer medium bubbled with O2 /CO2 (95/5%) at 37° C.]. A resting tension of 0.5 g was applied and the preparations were equilibrated during 100 min (fresh buffer solution every 20 min). The strips were isotonically contracted with 10^-7 M phenylephrine.
Drug-induced relaxation was tested at increasing concentration (half log steps), till maximal or full relaxation (corresponding to basal precontraction value of organ length) had been reached.
Responses were calculated as change in organ length relatively to maximal displacement by contraction, EC50 values corresponding to the drug concentration at which residual contraction is 50% of maximum.

[2] = system: arterial blood pressure; assay: Anesthetized rabbit experiments: arterial blood pressure and heart rate after infusion; assay type: in vivo, New Zealand white rabbits; further: key: Inactive: No decrease or decrease less than 5%; Active: Decrease between 5 and 40%; Very Active: Decrease greater than 40%
Method: In the anesthetized rabbits, the decrease of arterial blood pressure and the effect on the heart rate after infusion of the test compounds was determined.
New Zealand white rabbits (2.5-3 kg) were anesthetized (30 mg×kg^-1 pentobarbitone, i.v., supplemental doses as needed). Tracheotomy was performed, and an intra-tracheal cannula was inserted. No artificial ventilation was applied and body temperature was maintained at 37°-38° C.
Left ventricular pressure (LVP) was measured (Millar Mikro-Tip catheter via the right carotid artery with transducer in the left ventricle). The LVP signal was differentiated electronically to obtain the rate of change of LVP (LV dP/dt). The heart rate (HR) was derived from the LVP pulse signal. The jugular vein was cannulated for infusion of the test compounds. Aortic blood pressure (SAP and DAP) was monitored (Gould-Statham pressure transducer) by inserting a polyethylene catheter filled with heparin (50 IU×ml^-1) through the femoral artery into the abdominal aorta. Heparin (150 IU×kg^-1, i.v.) was administered to prevent blood clotting.
After completion of surgical procedures, the rabbits were allowed to recover for 15 minutes before drug administration was started.
Drugs were infused at constant rate (0.5 ml×min^-1) for 10 minutes at various doses, resulting in a typical dose range of 2.0, 20.0 and 200 μg×kg^-1 ×min^-1 (2.5 kg rabbit).
Due to poor solubility, 1 mg×ml^-1 solutions of all the compounds tested were prepared in Intralipid® 10%, containing 10% (v/v) dimethyl sulfoxide (DMSO). […] At the infusion of lower doses, the 1 mg×ml^-1 stock solutions were diluted with Intralipid® 10%.
The presented data are based on the effects obtained at the end of the 10 min infusion period at the highest dose tested (150-200 μg×kg^-1 ×min^-1). The indicated ratings are referring to the effects (decrease, defined as percentage of basal value before infusion of the drug) on arterial blood pressure as follows: […]

[3] = rat aorta strips contracted with 10^-7 M phenylephrine
[4] = anesthetized rabbit, end of 10 min infusion at highest dose tested (150-200 μg×kg^-1×min^-1), decrease as percentage of basal value

Row | Molecule | pEC50 [1, 3] | Activity with regard to the lowering of blood pressure [2, 4] | other results
1 | 2-Butyl-5,5-dimethyl-N-(4-methylbenzenesulphonyl)-4-[(5-nitroxyisosorbide)carbonyl]thiazolidine [Example IV] | 5.02 |  | 
2 | 4-Carboxy-2-[3-4-(2-nitroxyethoxy)phenyl]thiazolidine [Example XXXV] | 7.27 |  | 
3 | CCCCC1SCC(C(=O)OC2COC3C(O[N+](=O)[O-])COC23)N1S(=O)(=O)c1ccc(C)cc1 (stereo not shown) [Example I, 2-Butyl-N-(4-methylbenzenesulphonyl)-4-[(5-nitroxyisosorbide)carbonyl]thiazolidine] | 6.12 |  | 
4 | CCCCC1SCC(C(=O)OC2COC3C(O[N+](=O)[O-])COC23)N1C(=O)c1ccccc1 (stereo not shown) [Example II, N-benzoyl-4-[(5-nitroxyisosorbide)carbonyl]-2-butylthiazolidine] | 6.13 |  | 
5 | O=C(COc1ccccc1C1NC(C(=O)O)CS1)NCCO[N+](=O)[O-] (stereo not shown) [Example IX, 4-Carboxy-2-{2-[(2-nitroxyethyl)aminocarbonylmethoxyl]phenyl}thiazolidine] | 6.15 |  | 
6 | O=C(NCCO[N+](=O)[O-])c1ccc(C2NC(C(=O)O)CS2)cc1 (stereo not shown) [Example V, 4-Carboxy-2-{4-[(2-nitroxyethyl)aminocarbonyl]phenyl}thiazolidine] | 6.48 |  | 
7 | CC(=O)N1C(C(=O)NCCO[N+](=O)[O-])CSC1c1ccccc1C(=O)O (stereo not shown) [Example VI, N-acetyl-2-(2-carboxyphenyl)-4-[(2-nitroxyethyl)aminocarbonyl]thiazolidine] | 5.79 |  | 
8 | CCOC(=O)C1CSC(c2ccc(C(=O)NCCO[N+](=O)[O-])cc2)N1 (stereo not shown) [Example VII, 4-Ethoxycarbonyl-2-{4-[(2-nitroxyethyl)aminocarbonyl]phenyl}thiazolidine×HCl] | 7.70 |  | 
9 | CCOC(=O)C1CSC(c2ccc(OCC(=O)NCCO[N+](=O)[O-])c(OC)c2)N1 (stereo not shown) [Example XI, 4-Ethoxycarbonyl-2-{[3-methoxy-4-(2-nitroxyethyl)aminocarbonylmethoxy]phenyl}-thiazolidine hydrochloride] | 6.57 |  | 
10 | CCOc1cccc(C2NC(C(=O)O)CS2)c1OCCO[N+](=O)[O-] (stereo not shown) [Example XII, 4-Carboxy-2-[3-ethoxy-2-(2-nitroxyethoxy)phenyl]thiazolidine] | 6.19 |  | 
11 | COc1cccc(C2NC(C(=O)O)CS2)c1OCCO[N+](=O)[O-] (stereo not shown) [Example XIV, 4-Carboxyl-2-[3-methoxy-2-(2-nitroxyethoxy)phenyl]thiazolidine] | 6.64 |  | 
12 | O=C(O)C1CSC(c2ccccc2OCCO[N+](=O)[O-])N1 (stereo not shown) [Example XVI, 4-Carboxy-2-[2-(2-nitroxyethoxy)phenyl]thiazolidine] |  | Active | 
13 | CC(=O)N1C(C(=O)O)CSC1c1ccccc1OCCO[N+](=O)[O-] (stereo not shown) [Example XVII, N-acetyl-4-carboxy-2-[2-(2-nitroxyethoxy)phenyl]thiazolidine] | 6.14 |  | 
14 | O=C(O)C1CSC(c2cccc(OCCO[N+](=O)[O-])c2)N1 (stereo not shown) [Example XVIII, 4-Carboxy-2-[3-(2-nitroxyethoxy)phenyl]thiazolidine] | 7.33 |  | 
15 | O=C(O)C1CSC(c2cc([N+](=O)[O-])ccc2OCCO[N+](=O)[O-])N1 (stereo not shown) [Example XXI, 4-Carboxy-2-[5-nitro-2-(2-nitroxyethoxy)phenyl]thiazolidine] |  |  | Activity with regard to the lowering of blood pressure ([2]; rabbit, in vivo): Active; pEC50 ([1]; Rattus norvegicus): 7.60
16 | CC(=O)N1C(CCc2ccccc2)SCC1C(=O)OC[C@H]1CC[C@H](CO[N+](=O)[O-])CC1 (stereo partly shown) [Example XXII, N-acetyl-2-(2-phenylethyl)-4-[(4-nitroxymethylcyclohexyl)methoxycarbonyl]thiazolidine] | 7.64 | Active | 
17 | O=C(O)C1CSC(c2ccccc2OCCCO[N+](=O)[O-])N1 (stereo not shown) [Example XXXII, 4-Carboxy-2-[2-(3-nitroxypropoxy)phenyl]thiazolidine] | 7.43 |  | 
18 | O=[N+]([O-])OCCOc1cccc(C2NCCS2)c1 (stereo not shown) [XIX, 2-[3-(2-Nitroxyethoxy)phenyl]thiazolidine×HCl] | 8.01 |  | 
19 | COc1cc(C2NC(C(=O)O)CS2)cc(Br)c1OCCO[N+](=O)[O-] (stereo not shown) [XXIII, 2-[3-Bromo-5-methoxy-4-(2-nitroxyethoxy)phenyl]-4-carboxythiazolidine] | 6.09 |  | 
20 | O=C(O)C1CSC(c2ccccc2OCCCCO[N+](=O)[O-])N1 (stereo not shown) [XXXIV, 4-Carboxy-2-[2-(4-nitroxybutoxy)phenyl]thiazolidine] | 7.77 |  | 
21 | CC(COc1ccccc1C1NC(C(=O)O)CS1)O[N+](=O)[O-] (stereo not shown) [XXXVI, 4-Carboxy-2-[2-(2-nitroxypropoxy)phenyl]thiazolidine] | 7.32 | Active | 
22 | N-benzoyl-2-butyl-5,5-dimethyl-4-[(5-nitroxyisosorbide)carbonyl]thiazolidine [Example III] | 7.01 | Active | 

The remaining molecules from weak to strong by pEC50 [1, 3], led by results:

Row | pEC50 [1, 3] | Molecule | Activity with regard to the lowering of blood pressure [2, 4] | other results
23 | 5.56 | CC(C)(CO[N+](=O)[O-])C(=O)N1C(C(=O)O)CSC1c1ccccc1 (stereo not shown) [XXXIII, 4-Carboxyl-N-(2,2-dimethyl-3-nitroxypropionyl)-2-phenylthiazolidine] |  | 
24 | 5.73 | CC(=O)N1C(C(=O)NCCO[N+](=O)[O-])CSC1c1ccccc1 (stereo not shown) [Example VIII, N-acetyl-2-phenyl-4-[(2-nitroxyethyl)aminocarbonyl]thiazolidine] |  | 
25 | 6.05 | O=C(COc1ccc(C2NC(C(=O)O)CS2)cc1)NCCO[N+](=O)[O-] (stereo not shown) [Example XXIV, 4-Carboxy-2-{4-[(2-nitroxyethyl)aminocarbonylmethoxy]phenyl}thiazolidine] |  | 
26 | 6.41 | COc1cc(C2NC(C(=O)O)CS2)ccc1OCC(=O)NCCO[N+](=O)[O-] (stereo not shown) [Example X, 4-Carboxy-2{3-methoxy-4-[(2-nitroxyethyl)aminocarbonylmethoxy]phenyl}thiazolidine] |  | 
27 | 6.99 | CC(C)(COc1ccccc1C1NC(C(=O)O)CS1)CO[N+](=O)[O-] (stereo not shown) [Example XXX, 4-Carboxy-2-[2-(2,2-dimethyl-3-nitroxypropoxy)phenyl]thiazolidine] | Active | 
28 | 7.24 | CC1(C)SC(c2ccccc2OCCO[N+](=O)[O-])N[C@H]1C(=O)O (stereo partly shown) [XXVI, 4-Carboxy-5,5-dimethyl-2-[(2-nitroxyethoxy)phenyl]thiazolidine] | Active | 
29 | 7.66 | O=C(O)C1CSC(c2ccc(OCCO[N+](=O)[O-])cc2)N1 (stereo not shown) [Example XIII, 4-Carboxy-2-[4-(2-nitroxyethoxy)phenyl]thiazolidine] | Active | 
30 | 7.68 | O=C(O)C1CSC(c2ccccc2OC[C@H]2CC[C@H](CO[N+](=O)[O-])CC2)N1 (relative stereo) [Example XXIX, 4-Carboxy-2-(2-{[4-nitroxymethyl-(trans)-cyclohexyl]methoxy}phenyl)thiazolidine] | Active | 
31 | 7.70 | O=C(O)C1CSC(c2cc(Cl)ccc2OCCO[N+](=O)[O-])N1 (stereo not shown) [Example XXV, 4-Carboxy-2-[5-chloro-2-(2-nitroxyethoxy)phenyl]thiazolidine] | Active | 
32 | 8.03 | CCOC(=O)[C@@H]1CSC(c2ccccc2OCCO[N+](=O)[O-])N1 (stereo partly shown) [XXVIII, 4-Ethoxycarbonyl-2-[2-(2-nitroxyethoxy)phenyl]thiazolidine 4-toluenesulphonate] | Active | 
33 | 8.15 | COc1ccc(OCCO[N+](=O)[O-])c(C2NC(C(=O)O)CS2)c1 (stereo not shown) [Example XV, 4-Carboxy-2-[5-methoxy-2-(2-nitroxyethoxy)phenyl]thiazolidine] | Active | 
34 | 8.17 | O=[N+]([O-])OCCOc1ccccc1C1NCCS1 (stereo not shown) [XXVII, 2-[(2-Nitroxyethoxy)phenyl]thiazolidine oxalate hydrate] | Active | 
